For data set [1], the species on record is Rattus norvegicus. Briefly: Inhibition of prostate weight in testosterone treated castrated immature Sprague-Dawley rat at 2 mg/day. The class given is functional. Conditions: for inhibition: Prostate gland.
The nature of data set [2]: Bioavailability in orally dosed Sprague-Dawley rat. The class given is ADME, organism-based. The conditions noted are these: in vivo, po.
A short description of data set [3]: Half life in orally dosed Sprague-Dawley rat. The class given is ADME, organism-based. The conditions noted are these: in vivo, po.
For data set [4], the target named is T1, Androgen receptor (Homo sapiens) (UniProt P10275).
T1 sequence (whole entry): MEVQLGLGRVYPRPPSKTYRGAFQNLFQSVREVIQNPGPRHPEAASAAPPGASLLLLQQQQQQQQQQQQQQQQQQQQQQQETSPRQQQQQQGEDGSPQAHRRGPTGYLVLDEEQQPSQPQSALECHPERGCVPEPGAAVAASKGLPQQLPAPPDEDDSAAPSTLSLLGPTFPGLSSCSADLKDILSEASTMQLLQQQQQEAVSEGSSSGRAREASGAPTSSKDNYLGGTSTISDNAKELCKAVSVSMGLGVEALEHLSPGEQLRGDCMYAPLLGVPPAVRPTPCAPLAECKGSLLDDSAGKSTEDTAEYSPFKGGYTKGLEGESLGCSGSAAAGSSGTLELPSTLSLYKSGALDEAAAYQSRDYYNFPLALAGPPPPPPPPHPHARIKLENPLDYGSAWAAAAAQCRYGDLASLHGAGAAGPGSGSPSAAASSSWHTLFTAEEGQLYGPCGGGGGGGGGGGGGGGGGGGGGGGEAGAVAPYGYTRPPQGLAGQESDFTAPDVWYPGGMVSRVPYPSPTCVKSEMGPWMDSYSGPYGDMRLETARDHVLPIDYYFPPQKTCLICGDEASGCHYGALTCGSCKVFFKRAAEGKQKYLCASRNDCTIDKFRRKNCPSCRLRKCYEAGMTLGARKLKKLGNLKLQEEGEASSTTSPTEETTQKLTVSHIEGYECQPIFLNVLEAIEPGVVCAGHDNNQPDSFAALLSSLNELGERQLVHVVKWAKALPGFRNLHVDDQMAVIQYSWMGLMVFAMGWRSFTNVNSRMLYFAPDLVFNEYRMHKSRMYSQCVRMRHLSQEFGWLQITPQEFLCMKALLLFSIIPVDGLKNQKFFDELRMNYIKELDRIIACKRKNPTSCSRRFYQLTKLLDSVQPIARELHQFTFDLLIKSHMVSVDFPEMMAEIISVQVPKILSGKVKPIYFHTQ
The data set can be described thus: Antagonist activity at androgen receptor expressed in COS cell by whole cell assay. The class given is functional, cell-based.

Data set [5] deals with T1, Androgen receptor (Homo sapiens). The data set can be described thus: Antagonist activity at androgen receptor expressed in COS cell at 3000 nM by whole cell assay. The class given is functional, cell-based.
Data set [6] is filed under the species Rattus norvegicus. Briefly: Inhibition of prostate weight in testosterone treated castrated immature Sprague-Dawley rat. The class given is functional, Prostate gland.
The species named for data set [7] is Rattus norvegicus. Briefly: Inhibition of prostate weight in testosterone treated castrated mature Sprague-Dawley rat. The class given is functional. Conditions: Prostate gland, read-out: ID50 (the source's name).
The species named for data set [8] is Rattus norvegicus. The data set can be described thus: Inhibition of prostate weight in testosterone treated castrated immature Sprague-Dawley rat at 0.3 mg/day.

The source made the active and inactive calls. The calls are words filed in the database; no cut-off is given here.

The record followed here is ChEMBL document CHEMBL1138416, “Synthesis and SAR of potent and selective androgen receptor antagonists: 5,6-Dichloro-benzimidazole derivatives” (Bioorg Med Chem Lett, 2007).

A word on the inhibition: it is the relative decrease from the control value, in per cent. Take `CCCCn1c(C(C)(C)O)nc2cc(Cl)c(Cl)cc21`: in the data set filed under Rattus norvegicus [1], the inhibition entry was “inactive”.

As usually defined, the Inhibition is the share of the control response that was lost under treatment. The low end stands for little suppression, the high end for strong suppression. `CC(O)(c1nc2cc(Cl)c(Cl)cc2[nH]1)c1cccs1` (stereo not drawn) gave an Inhibition in the data set listed under Rattus norvegicus [1] of 16%. Molecule `CCOCC(C)(O)c1nc2cc(Cl)c(Cl)cc2n1C` (stereo not drawn) gave an Inhibition in the data set listed under Rattus norvegicus [1] of 10%.

Regarding `CC(O)(CS(C)(=O)=O)c1nc2cc(Cl)c(Cl)cc2[nH]1` (stereo not drawn), the inhibition entry in the data set filed under Rattus norvegicus [1] was “inactive”. As usually defined, the half-life is how long it takes for the measured level to halve. A higher half-life goes with slow loss. On to `CC(C)(O)c1nc2cc(Cl)c(Cl)cc2[nH]1`, for which the bioavailability in data set [2] was determined as 100%. The same molecule showed a half-life in data set [3] of 4 h. This molecule returned an Inhibition in the data set listed under Rattus norvegicus [1] of 77%. In data set [4], this molecule displayed an ID50 of 0.08 µM. Besides, the inhibition in data set [5] stood at 90%. The molecule `CCCC(C)c1nc2cc(Cl)c(Cl)cc2n1C` (stereo not drawn) showed an Inhibition in the data set filed under Rattus norvegicus [1] of 23%. Consider `CCn1c(C(C)(C)O)nc2cc(Cl)c(Cl)cc21`, for which the Inhibition in the data set filed under Rattus norvegicus [1] is given as 82%. For `Cc1ccc(S(=O)(=O)CC(C)(O)c2nc3cc(Cl)c(Cl)cc3[nH]2)cc1` (stereo not drawn), the Inhibition in the data set listed under Rattus norvegicus [1] turned out to be 11%. Regarding `CCC(CC)c1nc2cc(Cl)c(Cl)cc2n1CC`, the Inhibition in the data set listed under Rattus norvegicus [1] worked out at 3%. Consider `CC(O)(c1nc2cc(Cl)c(Cl)cc2[nH]1)c1ccco1` (stereo not drawn), for which the Inhibition in the data set filed under Rattus norvegicus [1] came to 20%.

For `CCC(C)c1nc2cc(Cl)c(Cl)cc2n1C` (stereo not drawn), in the data set listed under Rattus norvegicus [1], the inhibition result is “inactive”.

For the molecule `COCn1c(C(C)(C)O)nc2cc(Cl)c(Cl)cc21`, in the data set filed under Rattus norvegicus [1], the Inhibition was determined as 90%. In the data set listed under Rattus norvegicus [1], `Cn1c(C(C)(O)CSCC(F)(F)F)nc2cc(Cl)c(Cl)cc21` (stereo not drawn) registered an Inhibition of 6%. Take `CCCS(=O)(=O)CC(C)(O)c1nc2cc(Cl)c(Cl)cc2n1C` (stereo not drawn): in the data set filed under Rattus norvegicus [1], the Inhibition is reported as 26%. In the case of `CC(O)(CC#N)c1nc2cc(Cl)c(Cl)cc2[nH]1` (stereo not drawn), in the data set listed under Rattus norvegicus [1], the Inhibition is listed as 64%.

As to `OC(c1nc2cc(Cl)c(Cl)cc2[nH]1)C(F)(F)F` (stereo in doubt; 1), in data set [2], the bioavailability was 132%. The molecule also showed a half-life in data set [3] of 14.7 h. The molecule also came in with an Inhibition in the data set listed under Rattus norvegicus [1] of 96%. Also, the ID50 in the data set listed under Rattus norvegicus [6] was determined as 0.15 mg/day. In the data set listed under Rattus norvegicus [7], the ED50 is 30 mg/kg. `Cn1c(C(O)(O)C(F)(F)F)nc2cc(Cl)c(Cl)cc21` gave an Inhibition in the data set listed under Rattus norvegicus [1] of 94%. This molecule registered an ID50 in the data set filed under Rattus norvegicus [6] of 0.17 mg/day. In addition, in the data set listed under Rattus norvegicus [7], the ED50 was 23 mg/kg. `Cn1c(C(C)(C)O)nc2cc(Cl)c(Cl)cc21`: the bioavailability in data set [2] was found to be 100%. Besides, the half-life in data set [3] is 3 h. The molecule further gave an Inhibition in the data set listed under Rattus norvegicus [1] of 91%. Regarding `CC(C)(O)c1nc2cc(F)c(Cl)cc2[nH]1`, the Inhibition in the data set filed under Rattus norvegicus [1] worked out at 57%. Molecule `CC(C)(O)c1nc2cc(Cl)c(Cl)cc2n1CC#N` showed an Inhibition in the data set listed under Rattus norvegicus [1] of 5%.

The molecule `Cn1c(C(C)(O)CS(=O)(=O)CC(F)(F)F)nc2cc(Cl)c(Cl)cc21` (stereo not drawn) came in with an Inhibition in the data set listed under Rattus norvegicus [1] of 38%. `Cn1c(C(C)(O)CSc2ccc(F)cc2)nc2cc(Cl)c(Cl)cc21` (stereo not drawn) came in with an Inhibition in the data set filed under Rattus norvegicus [1] of 6%. Still for that read-out and setting: for `Cn1c(C(C)(O)CS(=O)(=O)Cc2ccccc2)nc2cc(Cl)c(Cl)cc21` (stereo not drawn) the value was 16%; for `CC(C)c1nc2cc(Cl)c(Cl)cc2[nH]1`, 11%; for `CCS(=O)(=O)CC(C)(O)c1nc2cc(Cl)c(Cl)cc2n1C` (stereo not drawn), 79%. In the data set listed under Rattus norvegicus [1], `COC(c1nc2cc(Cl)c(Cl)cc2n1C)C(F)(F)F` (stereo not drawn) came in with an Inhibition of 60%. `CC(O)(CO)c1nc2cc(Cl)c(Cl)cc2[nH]1` (stereo not drawn) had an Inhibition in the data set listed under Rattus norvegicus [1] of 67%. Take `OC(c1nc2cc(Cl)c(Cl)cc2[nH]1)C(F)(F)F` (stereo in doubt; (-)-1): the ID50 in the data set listed under Rattus norvegicus [6] is 0.12 mg/day. The Inhibition in the data set listed under Rattus norvegicus [8] is 80%. The molecule `CC(C)CSCC(C)(O)c1nc2cc(Cl)c(Cl)cc2n1C` (stereo not drawn) gave an Inhibition in the data set filed under Rattus norvegicus [1] of 9%. In the case of `CCn1c(C(C)(O)CS(=O)(=O)CC)nc2cc(Cl)c(Cl)cc21` (stereo not drawn), the bioavailability in data set [2] was found to be 99%. Further, the half-life in data set [3] was 15 h. The same molecule returned an Inhibition in the data set listed under Rattus norvegicus [1] of 74%. The inhibition in data set [5] came to 20%. For `CCC(CC)c1nc2cc(Cl)c(Cl)cc2n1C`, the Inhibition in the data set listed under Rattus norvegicus [1] amounted to 77%.

`OC(c1nc2cc(Cl)c(Cl)cc2[nH]1)C(F)(F)F` (stereo in doubt; (+)-1) showed an ID50 in the data set listed under Rattus norvegicus [6] of 0.032 mg/day. The Inhibition in the data set filed under Rattus norvegicus [8] was found to be 81%.

Turning to `CCCC(C)c1nc2cc(Cl)c(Cl)cc2[nH]1` (stereo not drawn), the Inhibition in the data set filed under Rattus norvegicus [1] was 32%. `CC(C)(O)c1nc2cc(C#N)c(C(F)(F)F)cc2[nH]1` yielded an Inhibition in the data set listed under Rattus norvegicus [1] of 63%. Take `CCSCC(C)(O)c1nc2cc(Cl)c(Cl)cc2n1CC` (stereo not drawn): the bioavailability in data set [2] is 15%. Moreover, the half-life in data set [3] is 1 h. In the data set listed under Rattus norvegicus [1], this molecule gave an Inhibition of 79%. Turning to `FC(F)(F)Cc1nc2cc(Cl)c(Cl)cc2[nH]1`, the half-life in data set [3] is 5.3 h. The Inhibition in the data set filed under Rattus norvegicus [1] is on record as 90%. The molecule further had an inhibition in data set [5] of 30%. The molecule further registered an ID50 in the data set listed under Rattus norvegicus [6] of 0.097 mg/day. Also, the ED50 in the data set filed under Rattus norvegicus [7] is 18 mg/kg. `CCn1c(C(C)C)nc2cc(Cl)c(Cl)cc21` came in with an Inhibition in the data set listed under Rattus norvegicus [1] of 82%. Turning to `CC(O)(CS(=O)(=O)c1ccc(F)cc1)c1nc2cc(Cl)c(Cl)cc2[nH]1` (stereo not drawn), in the data set filed under Rattus norvegicus [1], the Inhibition was 29%. On the same count and under the same terms, in the case of `CC(C)(O)c1nc2cc(Cl)c(C(F)(F)F)cc2[nH]1` it was 42%; in that of `CCC(CC)c1nc2cc(Cl)c(Cl)cc2[nH]1`, 80%; in that of `CC(O)(c1nc2cc(Cl)c(Cl)cc2[nH]1)C(F)(F)F` (stereo not drawn), 74%. On the same count and under the same terms, in the case of `CCSCC(C)(O)c1nc2cc(Cl)c(Cl)cc2n1C` (stereo not drawn) it was 86%. For `CC(O)c1nc2cc(Cl)c(Cl)cc2[nH]1` (stereo not drawn), the inhibition entry in the data set listed under Rattus norvegicus [1] is “inactive”. Consider `Cn1c(CC(F)(F)F)nc2cc(Cl)c(Cl)cc21`, for which the Inhibition in the data set filed under Rattus norvegicus [1] worked out at 60%. `CC(C)CS(=O)(=O)CC(C)(O)c1nc2cc(Cl)c(Cl)cc2n1C` (stereo not drawn): the Inhibition in the data set listed under Rattus norvegicus [1] is recorded as 7%.

On to `CC(C)c1nc2cc(Cl)c(Cl)cc2n1C`, for which, in the data set filed under Rattus norvegicus [1], the Inhibition worked out at 93%.

`CCC(C)c1nc2cc(Cl)c(Cl)cc2[nH]1` (stereo not drawn) returned an Inhibition in the data set listed under Rattus norvegicus [1] of 88%. For the molecule `Cn1c(C(C)(O)CSCc2ccccc2)nc2cc(Cl)c(Cl)cc21` (stereo not drawn), the Inhibition in the data set listed under Rattus norvegicus [1] was determined as 63%. In the case of `CC(O)(CS(=O)(=O)c1ccc(F)cc1)C(=O)Nc1ccc(C#N)c(C(F)(F)F)c1` (stereo not drawn) [BICALUTAMIDE], the Inhibition in the data set filed under Rattus norvegicus [1] is 70%. This molecule yielded an ID50 in the data set listed under Rattus norvegicus [6] of 0.23 mg/day. Also, the ED50 in the data set listed under Rattus norvegicus [7] was 30 mg/kg. With `CCCSCC(C)(O)c1nc2cc(Cl)c(Cl)cc2n1C` (stereo not drawn), the Inhibition in the data set listed under Rattus norvegicus [1] was found to be 40%.

For `CSCn1c(C(C)(C)O)nc2cc(Cl)c(Cl)cc21`, the Inhibition in the data set listed under Rattus norvegicus [1] turned out to be 96%. In the case of `CCCn1c(C(C)(C)O)nc2cc(Cl)c(Cl)cc21`, in the data set filed under Rattus norvegicus [1], the Inhibition is reported as 53%. Turning to `CCc1nc2cc(Cl)c(Cl)cc2[nH]1`, the inhibition result in the data set filed under Rattus norvegicus [1] was “inactive”.
